In US11384078B2, “5,6-fused-bicyclic compounds and compositions for the treatment of parasitic diseases” (NOVARTIS AG, priority 2017, dated 2022):
Where two headings read alike, the source gives them in different places.

Assays:
[1] = tested on: Leishmania donovani axenic amastigote; assay: In vitro assay for growth inhibition of Leishmania donovani axenic amastigote (Cell TiterGlo luminescence); assay type: cell-based; conditions: Leishmania donovani, read-out: L. donovani amastigotes EC50
Method: Abbreviations as used herein below have the corresponding meaning: • CPRG Chlorophenol Red-P-D-galactopyranoside • ATP adenosine triphosphate • BSA bovine serum albumin • DMSO dimethyl sulfoxide • FBS fetal bovine serum • PBS phosphate buffered saline • RPMI 1640 Rosweli Park Memorial Institute (RPMI) 1640 medium In Vitro Assay for Growth Inhibition of Leishmania donovani Axenic Amastiqote
Leishmania donovani axenic amastigote parasites are grown at 37° C., 5% CO2 in media made of RPMI 1640, 4 mM L-glutamine, 20% heat inactivated FBS, 100 units/ml of penicillin and 100 μg/ml of streptomycin, 23 μM folic acid, 100 μM adenosine, 22 mM D-glucose, 25 mM MES. The pH of media is adjusted to 5.5 at 37° C. using HCl. 20 μL of media is first dispensed into 384 well plates and 100 nL of the compounds of invention in DMSO are added to the plate wells. At the same time control compounds and DMSO are added to plates to serve as the positive and negative controls, respectively. 40 μL of parasite culture (9600 parasites) are then added to the plate wells. The plates are then placed into incubators. After two days incubation, 20 μL of Cell TiterGlo® (Promega) is added to the plate wells. The luminescence signal of each well is measured using the Envision reader (Perkin Elmer).

[2] = tested on: Trypanosoma cruzi amastigotes cultured in 3T3 fibroblast cells; assay: Assay for growth inhibition of kinetoplastid parasite Trypanosoma cruzi (beta-galactosidase Tulahuen strain, CPRG readout); assay type: cell-based; conditions: Trypanosoma cruzi, Fibroblast, read-out: Buckner infectious T. cruzi EC50
Text: Assay for Growth Inhibition of Kinetoplastid Parasite Trypanosoma cruzi
Compounds of the invention can be assayed for inhibitor activity against Trypanosoma cruzi amastigotes cultured in 3T3 fibroblast cells. The assay is done using the mammalian stage (amastigotes) of T. cruzi that replicates in the intracellular space of host cells. The host cells are initially infected with the culture-derived trypomastigotes that rapidly invade and then divide as amastigotes. The protocol uses the Tulahuen strain of T. cruzi that has been engineered to express the E. coli beta-galactosidase gene (Lac-Z) (Antimicr. Agents Chemoth. 40:2592, 1996). This allows for a colorimetric readout by using the substrate CPRG and an absorbance plate reader.
3T3 fibroblast cells are re-suspended in RPMI-1640 medium without phenol red medium supplemented with 10% FBS (heat inactivated), 100 μg/ml penicillin, and 100 μg/ml streptomycin. Forty μL of suspension (1,000 cells) is dispensed into 384-well plates and incubated overnight at 37° C. temperature and in atmosphere containing 5% CO2. The following day, 100 nL of compounds of the invention in DMSO are added to plate wells containing 3T3 cells. At the same time control compounds (benznidazole and nifurtimox) and DMSO are added to plates to serve as the positive and negative controls, respectively. After that, 10 μL of media containing 10,000 T. cruzi trypomastigotes are added to each plate well and plates are placed back into incubators. After 6 day incubation, 10 μL of reagent solution (0.6 mM CPRG, 0.6% NP-40 in PBS) is added to plates and incubated at room temperature for 2 hours. Absorbance is then measured on SpectraMax GEMINI fluorimeter to determine relative number of T. cruzi cells present in each plate well.

[3] = L. donovani axenic amastigotes in vitro
[4] = T. cruzi amastigotes in 3T3 fibroblast cells
[5] = Table 4: compound of Formula (I) compared with compounds having a different core

Structure (SMILES)	EC50 [1, 3]	EC50 [2, 4]	EC50 [1, 5]	EC50 [2, 5]
CCC(C)c1cnc2nn(-c3cc(NC(=O)c4ccco4)ccc3F)cc2c1 (stereo not shown) [Compound 61, N-{3-[5-(butan-2-yl)-2H-pyrazolo[3,4-b]pyridin-2-yl]-4-fluorophenyl}furan-2-carboxamide]	0.24 µM	0.052 µM	–	–
Cc1nc(C)c(C(=O)Nc2ccc(F)c(-n3cc4cc(CC(C)(C)C)cnc4n3)c2)o1 [Compound 102, N-{3-[5-(2,2-dimethylpropyl)-2H-pyrazolo[3,4-b]pyridin-2-yl]-4-fluorophenyl}-2,4-dimethyl-1,3-oxazole-5-carboxamide]	0.11 µM	0.046 µM	–	–
Cc1nc(C)c(C(=O)Nc2ccc(F)c(-c3nc4ncc(C(C)(C)C)cn4n3)c2)o1 [reference compound]	–	–	0.08 µM	0.022 µM
CC(C)Cc1cnc2nn(-c3cc(NC(=O)c4ccco4)ccc3F)cc2c1 [Compound 54, N-{4-fluoro-3-[5-(2-methylpropyl)-2H-pyrazolo[3,4-b]pyridin-2-yl]phenyl}furan-2-carboxamide]	0.028 µM	0.0041 µM	–	–
CC(C)c1cnc2nn(-c3cc(NC(=O)N4CC(F)(F)C4)ccc3F)cc2c1 [Compound 124, 3,3-difluoro-N-{4-fluoro-3-[5-(propan-2-yl)-2H-pyrazolo[3,4-b]pyridin-2-yl]phenyl}azetidine-1-carboxamide]	0.018 µM	0.016 µM	–	–
CC(C)c1cnc2nn(-c3cc(NC(=O)c4ccc(F)o4)ccc3F)cc2c1 [Compound 113, 5-fluoro-N-{4-fluoro-3-[5-(propan-2-yl)-2H-pyrazolo[3,4-b]pyridin-2-yl]phenyl}furan-2-carboxamide]	0.037 µM	0.00522 µM	–	–
O=C(Nc1ccc(F)c(-n2cc3cc(C4CCCC4)cnc3n2)c1)N1CC[C@@H](F)C1 [Compound 43, (3R)-N-(3-{5-cyclopentyl-2H-pyrazolo[3,4-b]pyridin-2-yl}-4-fluorophenyl)-3-fluoropyrrolidine-1-carboxamide]	0.0047 µM	0.0052 µM	–	–
CC(C)Cc1cnc2nn(-c3cc(NC(=O)N4CC[C@@H](F)C4)ccc3F)cc2c1 [Compound 41, (3R)-3-fluoro-N-{4-fluoro-3-[5-(2-methylpropyl)-2H-pyrazolo[3,4-b]pyridin-2-yl]phenyl}pyrrolidine-1-carboxamide]	0.02 µM	–	–	–
Cc1nc(C)c(C(=O)Nc2ccc(F)c(-n3cc4cc(CC(C)C)cnc4n3)c2)o1 [Compound 16, N-{4-fluoro-3-[5-(2-methylpropyl)-2H-pyrazolo[3,4-b]pyridin-2-yl]phenyl}-2,4-dimethyl-1,3-oxazole-5-carboxamide]	0.089 µM	0.012 µM	–	–
COc1ccc(C(=O)Nc2ccc(F)c(-n3cc4cc(C(C)C)cnc4n3)c2)o1 [Compound 110, N-{4-fluoro-3-[5-(propan-2-yl)-2H-pyrazolo[3,4-b]pyridin-2-yl]phenyl}-5-methoxyfuran-2-carboxamide]	0.64 µM	0.15 µM	–	–
O=C(Nc1ccc(F)c(-n2cc3cc(C4CCCC4)cnc3n2)c1)N1CC(F)(F)C1 [Compound 30, N-(3-{5-cyclopentyl-2H-pyrazolo[3,4-b]pyridin-2-yl}-4-fluorophenyl)-3,3-difluoroazetidine-1-carboxamide]	0.59 µM	–	–	–
Cc1nc(C)c(C(=O)Nc2ccc(F)c(-c3cn4nc(C(C)(C)C)cnc4n3)c2)o1 [reference compound]	–	–	0.367 µM	0.057 µM
Cc1nc(C)c(C(=O)Nc2ccc(F)c(-n3cc4cc(C5CC5)cnc4n3)c2)o1 [Compound 17, N-(3-{5-cyclopropyl-2H-pyrazolo[3,4-b]pyridin-2-yl}-4-fluorophenyl)-2,4-dimethyl-1,3-oxazole-5-carboxamide]	0.064 µM	0.016 µM	–	–
CC(C)c1cnc2nn(-c3cc(NC(=O)CC(C)C(F)(F)F)ccc3F)cc2c1 (stereo not shown) [Compound 213, 4,4,4-trifluoro-N-{4-fluoro-3-[5-(propan-2-yl)-2H-pyrazolo[3,4-b]pyridin-2-yl]phenyl}-3-methylbutanamide]	1.56 µM	0.363 µM	–	–
Cc1nc(C)c(C(=O)Nc2ccc(F)c(-n3cc4cc(C(C)C)cnc4n3)c2)o1 [drawing 458]	–	–	0.018 µM	0.015 µM
